Measurements published in paper PMC9867151, “Anti-HIV Potential of Beesioside I Derivatives as Maturation Inhibitors: Synthesis, 3D-QSAR, Molecular Docking and Molecular Dynamics Simulations” (International Journal of Molecular Sciences, 2023).
Structures can show the parent of a compound that is named as a salt. Where two headings read alike, the source gives them in different places.

How the values were obtained:
[1] = system: HIV-1NL4-3 Nanoluc-sec virus; assay: Anti-HIV assay: multicycle viral replication in MT4 cells, Nano-Glo luciferase readout; type: cell-based
Description: (§1) All of the synthetic derivatives were evaluated for anti-HIV activity by determining the inhibitory effects on virus replication in MT4 lymphocytes infected by HIV-1NL4-3 Nanoluc-sec virus. Cytotoxic activity tests were also carried out on MT4 cells.
In vitro activity was determined by a previously described HIV-1 infection assay. Briefly, a 96-well microtiter plate was used to set up the screening assay using MT4 cells infected by HIV-1NL4-3 Nanoluc-sec virus in the presence of various concentrations of derivatives. The viral replication thus can be monitored by measuring the luciferase activity using the Promega Nano-Glo Luciferase Assay System.

[2] = CellTiter-Glo Luminescent Cytotoxicity Assay; type: cell-based; conditions: human, MT-4 cells (MT4 lymphocytes)
Description: as §1
(§2) The cytotoxicity of the synthesized derivatives was determined using the CellTiter-Glo® Luminescent Cytotoxicity Assay (Promega, Madison, WI, USA). MT-4 cells were cultured in the presence of various concentrations of the compounds for 3 days. The percentage of viable cells was measured by following the protocol provided by the manufacturer. The CC50 was derived using the Quest Graph™ IC50 Calculator (https://www.aatbio.com/tools/ic50-calculator, accessed on 7 October 2021).

[3] = system: HIV-1NL4-3 Nanoluc-sec virus; conditions: cited from earlier work
MT4 cells = assay: CellTiter-Glo Luminescent Cytotoxicity Assay; type: cell-based; conditions: MT-4 cells, 3 days
Description: as §1, §2

[4] = Human immunodeficiency virus 1, MT4, 3D-QSAR dataset, actual values, entries matching the derivatives tested in this paper (Table 1)
[5] = Human immunodeficiency virus 1, MT4, read-out: PEC50, actual value converted from EC50, 3D-QSAR dataset
[6] = 3D-QSAR dataset, actual values, ref activity data reported from our laboratory

| Compound | EC50 [1, 5] | EC50 [3, 6] | other results |
| --- | --- | --- | --- |
| CC(C)(CC(=O)OC1CCC23CC24CCC25COC6(C(C)(C)O)CCC(C)(O6)C2C(O)C(O)C5(C)C4CCC3C1(C)C)C(=O)O (stereo not drawn) [compound 9] | 1.79 µM |  | EC50 [1, 4]: 1.79 µM |
| CC(=O)O[C@H]1[C@@H](OC(C)=O)[C@@]2(C)C3CCC4C(C)(C)[C@@H](OC(=O)CC(C)(C)C(=O)OCc5ccccc5)CC[C@@]45C[C@@]35CC[C@@]23CO[C@@]2(C(C)(C)O)CC[C@](C)(O2)[C@@H]13 (stereo partly drawn) [3b, (20S,24S)-15β,16β-Diacetoxy-18,24;20,24-diepoxy-9,19-cyclolanostane-3β,25-diol-3-O-4′-(benzyloxy) carbonyl-3′,3′-dimethylsuccinate] |  |  | EC50 ([1]; Human immunodeficiency virus 1, NL43, MT4, read-out: EC50 (μM) NL4-3, MT4 cells infected by HIV-1NL4-3 Nanoluc-sec virus, mean +/− SD of 3 tests): 0.28 µM; CC50 at 3 days [2]: > 20 µM |
| beesioside I [compound 1] |  | 0.025 µM | PEC50 ([1]; actual value converted from EC50, 3D-QSAR dataset): 7.602 |
| CC(=O)OC1C(O)C2C3(C)CCC(C(C)(C)O)(OCC24CCC25CC26CCC(OC2OCC(O)C(O)C2O)C(C)(C)C6CCC5C14C)O3 (stereo not drawn) [compound 13] | 4.85 µM | 4.85 µM |  |
| Cc1cn([C@H]2C[C@H](N=[N+]=[N-])[C@@H](CO)O2)c(=O)[nH]c1=O [AZT, reference compound] |  |  | EC50 ([1]; MT4 cells infected by HIV-1NL4-3 Nanoluc-sec virus, mean +/− SD of 3 tests, read-out: EC50 (μM) NL4-3): 0.024 ± 0.0045 µM; CC50 (MT4 cells): > 0.3 µM |
| CC(=O)OC1C2C3(C)CCC(C(C)(C)O)(OCC24CCC25CC26CCC(OC2OCC(O)C(O)C2O)C(C)(C)C6CCC5C4(C)C1OC(C)=O)O3 (stereo not drawn) [compound 10] | 2.32 µM | 2.32 µM |  |
| CC(=O)O[C@H]1[C@@H](OC(C)=O)[C@@]2(C)C3CCC4C(C)(C)[C@@H](OC(=O)CC(C)(C)C(=O)OCc5ccccc5)CC[C@@]45C[C@@]35CC[C@@]23CO[C@@]2(C(C)(C)O)CC[C@](C)(O2)[C@@H]13 (stereo partly drawn) (as salt: succinate) [3b, (20S,24S)-15β,16β-Diacetoxy-18,24;20,24-diepoxy-9,19-cyclolanostane-3β,25-diol-3-O-4′-(benzyloxy) carbonyl-3′,3′-dimethylsuccinate] |  |  | melting point: 188 to 190 °C |
| CC(=O)OC1C2C3(C)CCC(C(C)(C)O)(OCC24CCC25CC26CCC(OC(=O)CC(C)(C)C(=O)O)C(C)(C)C6CCC5C4(C)C1OC(C)=O)O3 [DSC, (20S,24S)-15ꞵ,16ꞵ-diacetoxy-18,24; 20,24-diepoxy-9,19-cyclolanostane-3ꞵ,25-diol 3-O-3′,3′-dimethylsuccinate] |  |  | EC50 ([3]; anti-HIV, previous work): 0.025 µM |
| CC(=O)OC1C2C3(C)CCC(C(C)(C)O)(OCC24CCC25CC26CCC(OC(=O)CC(C)C(=O)O)C(C)(C)C6CCC5C4(C)C1OC(C)=O)O3 (stereo not drawn) [compound 6] | 1.11 µM | 1.11 µM |  |
| CC(C)(CC(=O)OC1CCC23CC24CCC25COC6(C(C)(C)O)CCC(C)(O6)C2C(O)C(O)C5(C)C4CCC3C1(C)C)C(=O)OCc1ccccc1 (stereo not drawn) [compound 7] | 1.52 µM |  | EC50 [1, 4]: 1.52 µM |
| CC(C)(CC(=O)O[C@H]1CC[C@]23C[C@]24CC[C@]25CO[C@@]6(C(C)(C)O)CC[C@](C)(O6)[C@H]2[C@@H](O)[C@@H](O)[C@@]5(C)C4CCC3C1(C)C)C(=O)O (stereo partly drawn) [3 ^a] | 0.12 µM |  |  |
| CC(=O)OC1C2C3(C)CCC(C(C)(C)O)(OCC24CCC25CC26CCC(OC(=O)CC2(CC(=O)O)CCCC2)C(C)(C)C6CCC5C4(C)C1OC(C)=O)O3 (stereo not drawn) [compound 8] | 1.59 µM | 1.59 µM |  |
| CC12CCC(C(C)(C)O)(OCC34CCC56CC57CCC(OC5OCC(O)C(O)C5O)C(C)(C)C7CCC6C3(C)C(O)C(O)C14)O2 (stereo not drawn) [compound 14] | 7.62 µM | 7.62 µM |  |
| CC(=O)OC1C2C3(C)CCC(C(C)(C)O)(OCC24CCC25CC26CCC(OC(C)=O)C(C)(C)C6CCC5C4(C)C1OC(C)=O)O3 (stereo not drawn) [compound 11] | 2.44 µM | 2.44 µM |  |
| CC(=O)OC1C2C3(C)CCC(C(C)(C)O)(OCC24CCC25CC26CCC(OC(=O)CC(C)(C)C(=O)OCc2ccccc2)C(C)(C)C6CCC5C4(C)C1OC(C)=O)O3 (stereo not drawn) [compound 4] | 0.285 µM |  | EC50 [1, 4]: 0.285 µM |
